# Laboratory results taken from patent US5302610A, “Renal-selective biphenylmethyl imidazole angiotensin II antagonists for treatment of hypertension” (G. D. Searle & Co., priority 1991, dated 1994).
# What was measured:
# [1] = biological target: smooth muscle angiotensin II receptor; test: Assay A: Angiotensin II Binding Activity; conditions: rat uterine membranes, 25° C., 60 min; read-out: Assay A IC50 (50% displacement of specifically bound 125I-AII)
# Protocol: Other chemicals were obtained from Sigma Chemical Co. This assay was carried out according to the method of Douglas et al [Endocrinology, 106, 120-124 (1980)]. Rat uterine membranes were prepared from fresh tissue. All procedures were carried out at 4° C. Uteri were stripped of fat and homogenized in phosphate-buffered saline at pH 7.4 containing 5 mM EDTA. The homogenate was centrifuged at 1500×g for 20 min., and the supernatant was recentrifuged at 100,000×g for 60 min. The pellet was resuspended in buffer consisting of 2 mM EDTA and 50 mM Tris-HCl (pH 7.5) to a final protein concentration of 4 mg/ml. […] The reaction was initiated by the addition of membrane protein and the mixture was incubated at 25° C. for 60 min. The incubation was terminated with ice-cold 50 mM Tris-HCl (pH 7.5) and the mixture was filtered to separate membrane-bound labelled peptide from the free ligand. The incubation tube and filter were washed with ice-cold buffer. Filters were assayed for radioactivity in a Micromedic gamma counter. Nonspecific binding was defined as binding in the presence of 10 μM of unlabelled AII. Specific binding was calculated as total binding minus nonspecific binding. […] Binding data were analyzed by a nonlinear least-squares curve fitting program.
# [2] = test system: response to angiotensin II (mean arterial pressure); test: Assay E: Mean Arterial Pressure, acute administration with AII infusion; type: in vivo, male Sprague-Dawley rats, conscious; conditions: for Mean Arterial Pressure: n = 6, means±SE
# Protocol: antagonist compound (Ex. #5) and a glutamyl conjugate (Ex. #81) of the Ex. #5 AII antagonist compound to determine the renal selectivity of the conjugate. Male Sprague-Dawley rats (300-350 g body weight) had catheters implanted into the femoral artery and vein under chloral hydrate anesthesia (400 mg/kg, i.p.). After 2 to 4 days of recovery, on the experimental day, a urinary bladder catheter was implanted under methohexital anesthesia (50 mg/kg, i.p.). Rats were placed in a restraint device to allow for urine collection and mean arterial pressure measurements. After 1-2 hours of recovery, in conscious rats, an isotonic saline infusion (50 μl/min) was started and continued for the duration of the experiment. After one hour equilibration to the saline infusion, a 20 minute control urine and mean arterial pressure collection were obtained. Then angiotensin II was infused at 20 ng/min for 25 minutes. After 5 minutes of angiotensin II infusion, a 20 minute experimental collection was made. Finally, 5 minutes after the end of angiotensin II infusion, a 20 minute recovery collection was obtained. In separate groups of rats, vehicle (0.3 ml isotonic saline, i.v. bolus), Example #5 angiotensin II antagonist compound (100 mg/kg, i.v. bolus), or Example #81 conjugate (100 mg/kg, i.v. bolus) was administered 1-2 minutes prior to onset of angiotensin II infusion. […] Results are shown in Tables XIII and XIV and also in FIGS. 3 and 4. Data are presented as means±SE. Repeated measures analysis of variance was used for main effects and interactions and Tukey's HSD test was used for pairwise comparisons among means. Statistical significance was defined as p<0.05.
# AII receptor = test: Assay C: In Vivo Intraduodenal Pressor Assay Response for AII Antagonists; set-up: species or system male Sprague-Dawley rats
# Protocol: The in vivo AII receptor antagonist activity of Example #5 compound was examined in ganglion-blocked male Sprague-Dawley rats (Harlan Sprague-Dawley, Inc.), weighing 300-400 g, anesthetized with 100 mg/kg i.p. Inactin. Catheters (PE-50) were implanted in a femoral artery and vein to measure mean arterial pressure and to administer compounds, respectively. A tracheal catheter maintained airway patency. For intravenous experiments, autonomic neurotransmission was blocked by treatment with mecamylamine (3 mg/kg i.v.) and atropine (400 μg/kg i.v.). AII (30 ng/kg i.v., 20-25 μl volume) was administered four times at 10 minute intervals to establish a reproducible control pressor response. Example #5 compound was then administered at 1, 3 and 10 mg/kg in separate groups of rats as an intravenous bolus (0.2 ml volume) before rechallenging with AII (30 ng/kg, 20-25 μl volume) for the following 2 hours. For intraduodenal experiments, rats were anesthetized as above, but ganglion blockade was not performed. AII was administered at 100 ng/kg i.v. (20-25 μl volume), and was administered at 10, 30 and 100 mg/kg in separate groups of rats as an intraduodenal bolus (0.2 ml volume). […] The response to AII was calculated as percent of the control response and then the percent inhibition was calculated as 100 minus the percent control response. Duration of action of a test compound was defined as the time from peak percent inhibition to 50% of peak. The test compound was tested in two rats and the values for the two rats were averaged.
smiles,measurement,setting,value
CCCCc1nc(Cl)c(CO)n1Cc1ccc(-c2ccccc2C(=O)O)cc1 [Example 5],IC50,[1],0.216 ± 0.045 µM
same,Mean Arterial Pressure,"[2]; 100 mg/kg i.v. bolus, Recovery after AII infusion",124 ± 7 mm Hg
same,Mean Arterial Pressure,"[2]; 100 mg/kg i.v. bolus, during AII infusion 20 ng/min, * in table",125 ± 7 mm Hg
same,mean arterial pressure response to angiotensin II,"[2]; 100 mg/kg, i.v. bolus, AII 20 ng/min",prevented both responses to angiotensin II
same,Mean Arterial Pressure,[2]; Control period (before dosing),123 ± 5 mm Hg
same,% Control of AII Pressor Response,"AII receptor; 10 mg/kg intraduodenal, 1 min",100%
same,% Control of AII Pressor Response,"AII receptor; 10 mg/kg intraduodenal, 5 min",94%
same,% Control of AII Pressor Response,"AII receptor; 10 mg/kg intraduodenal, 10 min",99%
same,% Control of AII Pressor Response,"AII receptor; 10 mg/kg intraduodenal, 20 min",85%
same,% Control of AII Pressor Response,"AII receptor; 10 mg/kg intraduodenal, 30 min",91%
same,% Control of AII Pressor Response,"AII receptor; 10 mg/kg intraduodenal, 40 min",91%
same,% Control of AII Pressor Response,"AII receptor; 10 mg/kg intraduodenal, 50 min",95%
same,% Control of AII Pressor Response,"AII receptor; 10 mg/kg intraduodenal, 60 min",93%
same,% Control of AII Pressor Response,"AII receptor; 10 mg/kg intraduodenal, 75 min",95%
same,% Control of AII Pressor Response,"AII receptor; 30 mg/kg intraduodenal, 1 min",48%
same,% Control of AII Pressor Response,"AII receptor; 30 mg/kg intraduodenal, 5 min",48%
same,% Control of AII Pressor Response,"AII receptor; 30 mg/kg intraduodenal, 10 min",44%
same,% Control of AII Pressor Response,"AII receptor; 30 mg/kg intraduodenal, 20 min",28%
same,% Control of AII Pressor Response,"AII receptor; 30 mg/kg intraduodenal, 30 min",34%
same,% Control of AII Pressor Response,"AII receptor; 30 mg/kg intraduodenal, 40 min",42%
same,% Control of AII Pressor Response,"AII receptor; 30 mg/kg intraduodenal, 50 min",41%
same,% Control of AII Pressor Response,"AII receptor; 30 mg/kg intraduodenal, 60 min",53%
same,% Control of AII Pressor Response,"AII receptor; 30 mg/kg intraduodenal, 75 min",74%
same,% Control of AII Pressor Response,"AII receptor; 100 mg/kg intraduodenal, 1 min",28%
same,% Control of AII Pressor Response,"AII receptor; 100 mg/kg intraduodenal, 5 min",19%
same,% Control of AII Pressor Response,"AII receptor; 100 mg/kg intraduodenal, 10 min",15%
same,% Control of AII Pressor Response,"AII receptor; 100 mg/kg intraduodenal, 20 min",14%
same,% Control of AII Pressor Response,"AII receptor; 100 mg/kg intraduodenal, 30 min",9%
same,% Control of AII Pressor Response,"AII receptor; 100 mg/kg intraduodenal, 40 min",5%
same,% Control of AII Pressor Response,"AII receptor; 100 mg/kg intraduodenal, 50 min",13%
same,% Control of AII Pressor Response,"AII receptor; 100 mg/kg intraduodenal, 60 min",10%
same,% Control of AII Pressor Response,"AII receptor; 100 mg/kg intraduodenal, 75 min",13%
